Results from patent US4089965A, “Thiazolylphenylguanidines as antirhinovirus agents” (American Cyanamid Company, priority 1977, dated 1978).

Columns and labels:
Test in all cases: Protection of tissue from cytopathic effects (plaque inhibition, filter paper disc or agar overlay)
Details in all cases: 33°, 3 to 5 days
Rhinovirus strain 2 = system: Rhinovirus strain 2
Rhinovirus strain 23 = system: Rhinovirus strain 23; also: test concentration or dose not given here
Rhinovirus strain 14 = system: Rhinovirus strain 14
Rhinovirus strain 5 = system: Rhinovirus strain 5; also: test concentration or dose not given here
Rhinovirus strain 1B = system: Rhinovirus strain 1B

Measured: Protection of tissue from destruction by virus

N=C(Nc1cccc(Cl)c1)Nc1nc(-c2ccccc2)cs1 [1-(4-phenyl-2-thiazolyl)-3-(3-chlorophenyl) guanidine]
+: Rhinovirus strain 2

N=C(Nc1ccc(C(=O)O)cc1)Nc1nc(-c2ccccc2)cs1 [1-(4-phenyl-2-thiazolyl)-3-(4-carboxyphenyl) guanidine]
+: Rhinovirus strain 23 | Rhinovirus strain 14 | Rhinovirus strain 2 | Rhinovirus strain 5 | Rhinovirus strain 1B

N=C(Nc1ccc(F)cc1)Nc1nc(-c2ccccc2)cs1 [1-(4-phenyl-2-thiazolyl)-3-(4-fluorophenyl) guanidine]
+: Rhinovirus strain 2 | Rhinovirus strain 5 | Rhinovirus strain 1B

Cc1ccc(NC(=N)Nc2nc(-c3ccccc3)cs2)cc1 [1-(4-phenyl-2-thiazolyl)-3-(p-tolyl)guanidine]
+: Rhinovirus strain 23 | Rhinovirus strain 14 | Rhinovirus strain 2 | Rhinovirus strain 5 | Rhinovirus strain 1B

COC(=O)c1ccc(NC(=N)Nc2nc(-c3ccccc3)cs2)cc1 [1-(4-phenyl-thiazolyl)-3-(4-carbomethoxyphenyl)-guanidine]
+: Rhinovirus strain 23 | Rhinovirus strain 2

Cc1ccc(NC(=N)Nc2nc(-c3ccc(Cl)cc3)cs2)cc1 [1-[4-(4-chlorophenyl)-2-thiazolyl-3-(p-tolyl)guanidine]]
+: Rhinovirus strain 2 | Rhinovirus strain 1B
